In ChEMBL document CHEMBL4673226, “Development of 5-Aminopyrazole-4-carboxamide-based Bumped-Kinase Inhibitors for Cryptosporidiosis Therapy” (J Med Chem, 2019):
Calls of active or inactive are those of the source. The rule behind the calls is not given here.

Experiments:
Cryptosporidium parvum [1] = experiment: Antimicrobial activity against nano-luciferase-expressing Cryptosporidium parvum infected in IFN-gamma KO B6.129S7-Ifngtm1Ts/J mouse assessed as log reduction of infection at 20 mg/kg, po BID for 5 days beginning on day 6 post infection relative untreated control; format: functional, organism-based; details: time 5.0 day
Cryptosporidium parvum [2] = experiment: Antimicrobial activity against nano-luciferase-expressing Cryptosporidium parvum infected in IFN-gamma KO B6.129S7-Ifngtm1Ts/J mouse assessed as log reduction of infection at 10 mg/kg, po BID for 5 days beginning on day 6 post infection relative untreated control; format: functional, organism-based; details: time 5.0 day
Cryptosporidium parvum [3] = experiment: Antimicrobial activity against nano-luciferase-expressing Cryptosporidium parvum infected in IFN-gamma KO B6.129S7-Ifngtm1Ts/J mouse assessed as log reduction of infection at 60 mg/kg, po QD for 5 days beginning on day 6 post infection relative untreated control; details: time 5 day
[4] = Drug level in mouse fecus at 25 mg/kg, po; details: read-out: Drug uptake, in vivo
[5] = Clearance in mouse at 25 mg/kg, po; format: ADME, organism-based; details: in vivo
[6] = AUC in mouse at 25 mg/kg, po; format: ADME, organism-based; set-up: dose 25 mg/kg; details: in vivo
[7] = Protein binding in human plasma by dialysis method
[8] = Solubility in pH 2.0 solution; details: buffer
[9] = Solubility in pH 6.5 solution; details: buffer
[10] = Protein binding in mouse plasma by dialysis method
HepG2 = experiment: Toxicity in human HepG2 cells; format: cell-based
[11] = Toxicity in human CRL-8155 cells; format: cell-based
[12] = Inhibition of Cryptosporidium parvum CDPK1 assessed as reduction in ATP consumption using BioSyntide-2 substrate incubated for 90 mins by luciferase reporter gene assay
[13] = molecular target: Proto-oncogene tyrosine-protein kinase Src (Homo sapiens, UniProt P12931); experiment: Inhibition of SRC (unknown origin); format: ADME
[14] = Cardiotoxicity in rat; format: toxicity

Chain of Proto-oncogene tyrosine-protein kinase Src (P12931 2-536 limits assumed): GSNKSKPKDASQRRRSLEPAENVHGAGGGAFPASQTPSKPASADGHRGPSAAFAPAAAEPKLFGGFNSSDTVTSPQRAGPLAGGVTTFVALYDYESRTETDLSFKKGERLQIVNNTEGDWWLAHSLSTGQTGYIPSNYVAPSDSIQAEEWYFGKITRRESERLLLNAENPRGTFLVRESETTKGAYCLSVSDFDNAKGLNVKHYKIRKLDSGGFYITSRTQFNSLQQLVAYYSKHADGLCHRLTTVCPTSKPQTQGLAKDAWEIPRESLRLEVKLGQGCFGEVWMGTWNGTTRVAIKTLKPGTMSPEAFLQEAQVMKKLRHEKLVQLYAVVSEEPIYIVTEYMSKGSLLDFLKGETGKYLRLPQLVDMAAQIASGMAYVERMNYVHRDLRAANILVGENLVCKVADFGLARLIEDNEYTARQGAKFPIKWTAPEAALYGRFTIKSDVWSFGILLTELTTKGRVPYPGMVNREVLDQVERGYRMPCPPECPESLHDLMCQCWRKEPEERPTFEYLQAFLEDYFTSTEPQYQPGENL

For CCOc1ccc2cc(-c3nn(C(C)(C)CO)c(N)c3C(N)=O)ccc2n1, which Activity (Cryptosporidium parvum [1]) is on record?
The Activity was “inactive”.

What about the Activity (Cryptosporidium parvum [2]) of the same compound?
Its Activity is “inactive”.

What about the FC (Cryptosporidium parvum [3]) of the same compound?
The FC was 3.15.

And the concentration [4]?
Its concentration is 410 nM.

What about the CL/F [5] of the same compound?
Its CL/F is 0.4 mL/min.

And the AUC [6]?
The AUC was 11412.6 µmol·min/L.

And the PPB [7]?
The PPB was 84%.

What about the solubility [8] of the same compound?
The solubility was > 100 µM.

What about the solubility [9] of the same compound?
Its solubility is > 100 µM.

What about the PPB [10] of the same compound?
Its PPB is 80%.

And the Activity (HepG2)?
The Activity was “Non-Toxic”.

And the Activity [11]?
Its Activity is “Non-Toxic”.

And the IC50 [12]?
The IC50 was 3.1 nM.

And the IC50 [13]?
Its IC50 is > 10000 nM.

With CCOc1ccc2cc(-c3nn(C(C)(C)C)c(N)c3C(N)=O)cnc2c1 as the compound, how does the Activity [14] read?
The Activity was “Toxic”.
